Experiments:
HL60 cells = assay: HL60 cell killing experiment (CellTiter-Glo cell viability); type: cell-based; conditions: CTG luminescence
Protocol: HL60 cell lines were purchased from ATCC (Cat #ATCC® CCL-240™), IMDM media were purchased from ATCC (Cat #ATCC® 30-2005™), FBS was purchased from Gibco (Cat #10091148), celltiter-glo luminescent cell viability assay was purchased from promega (Cat #G7572), and 96-well plates were purchased from corning (Cat #3610).
The effect of compounds on the growth of HL60 cells was determined by measuring cell viability. Firstly, cells in the logarithmic growth phase were collected and centrifuged, and the culture supernatant was discarded. The centrifuged cells were resuspended in a fresh complete medium, and the cell density was adjusted to 5×10^4 cells/mL. The resuspended cells were inoculated into two opaque 96-well cell culture plates at 100 μL of cell suspension per well, and the cell culture plates were incubated in a cell incubator at 37° C. for 4 h. After 4 h, dilutions (20 μL) of compounds with different concentrations were added. After one of the cell plates was cooled to room temperature, 60 μL of CTG reagent was added, and the luminescence values were read on the instrument as G0. The other one was incubated in a cell incubator for 48 h. After 48 h, 60 μL of CTG reagent was added, and the luminescence values were read on the instrument as G3.
According to the corresponding proliferation rate and concentration of each gradient concentration well, a gradient curve of cell proliferation was fitted using XLFit software, and the GI50 values of compounds were calculated.

GSPT1 = biological target: T1, GSPT1 (Homo sapiens, UniProt P15170+Q96SW2); assay: Degradation of GSPT1 by the compounds (HiBiT signal in GSPT1/HEK293 hibit cells); type: cell-based; conditions: 6 h incubation, Nano Glo HiBiT Lytic Detection
T1 construct: host or cells: HEK293
Protocol: GSPT1/HEK293 hibit cell lines were constructed by Shanghai BioDuro Co., Ltd., HEK293 cell lines were purchased from ATCC (Cat #ATCC® CRL-1573™), DMEM media were purchased from ATCC (Cat #ATCC® 30-2002™), FBS was purchased from Gibco (Cat #10091148), Nano Glo HiBiT Lytic Detection System was purchased from Promega (Cat #N3040), and 96-well plates were purchased from coming (Cat #3610).
The degradation of GSPT1 by the compounds was determined by measuring the intensity of hibit signals in cells. Firstly, the cells were digested with pancreatin, and the digestion was then terminated with medium. The cells were centrifuged, and the supernatant was discarded. The centrifuged cells were resuspended in a fresh complete medium, and the cell density was adjusted to 2.5×10^4 cells/mL. The resuspended cells were inoculated into an opaque 96-well cell culture plate at 100 μL of cell suspension per well, and the cell culture plate was incubated in a cell incubator at 37° C. overnight. The next day, dilutions (20 μL) of compounds with different concentrations were added, and the plate was incubated in a cell incubator for 6 h. After 6 h, 60 μL of Nano Glo HiBiT Lytic Detection System reagent was added and the luminescence values were read on the instrument.
According to the corresponding degradation rate and concentration of each gradient concentration well, a gradient curve of degradation rate was fitted using XLFit software, and the DC50 values of compounds were calculated.

[1] = Homo sapiens, HL-60, 48 h incubation

T1 sequence (P15170 whole entry): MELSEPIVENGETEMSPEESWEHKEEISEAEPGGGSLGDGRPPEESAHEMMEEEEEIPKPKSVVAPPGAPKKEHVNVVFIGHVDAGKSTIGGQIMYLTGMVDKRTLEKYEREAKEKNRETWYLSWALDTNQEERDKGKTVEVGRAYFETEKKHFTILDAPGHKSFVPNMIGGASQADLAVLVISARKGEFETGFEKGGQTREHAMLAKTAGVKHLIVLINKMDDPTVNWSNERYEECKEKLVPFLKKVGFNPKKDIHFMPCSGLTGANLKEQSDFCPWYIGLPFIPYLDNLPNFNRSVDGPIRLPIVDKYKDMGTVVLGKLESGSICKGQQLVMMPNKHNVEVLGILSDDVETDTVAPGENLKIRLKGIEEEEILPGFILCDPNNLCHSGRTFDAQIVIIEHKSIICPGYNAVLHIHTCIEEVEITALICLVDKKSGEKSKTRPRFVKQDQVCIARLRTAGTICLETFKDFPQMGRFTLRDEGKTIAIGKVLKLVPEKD
T1 sequence (Q96SW2 whole entry): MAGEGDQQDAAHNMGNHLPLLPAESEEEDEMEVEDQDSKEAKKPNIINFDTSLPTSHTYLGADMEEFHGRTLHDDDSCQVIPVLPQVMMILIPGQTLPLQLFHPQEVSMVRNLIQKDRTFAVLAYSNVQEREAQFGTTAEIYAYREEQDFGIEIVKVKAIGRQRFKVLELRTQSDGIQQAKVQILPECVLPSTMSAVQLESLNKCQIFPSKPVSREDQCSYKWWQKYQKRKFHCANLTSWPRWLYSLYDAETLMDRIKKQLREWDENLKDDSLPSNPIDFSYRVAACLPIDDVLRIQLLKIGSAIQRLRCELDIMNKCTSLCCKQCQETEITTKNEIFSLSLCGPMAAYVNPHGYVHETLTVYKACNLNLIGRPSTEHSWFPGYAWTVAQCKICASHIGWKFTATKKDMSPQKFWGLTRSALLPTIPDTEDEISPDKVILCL
T1 sequence (Q16531 whole entry partner): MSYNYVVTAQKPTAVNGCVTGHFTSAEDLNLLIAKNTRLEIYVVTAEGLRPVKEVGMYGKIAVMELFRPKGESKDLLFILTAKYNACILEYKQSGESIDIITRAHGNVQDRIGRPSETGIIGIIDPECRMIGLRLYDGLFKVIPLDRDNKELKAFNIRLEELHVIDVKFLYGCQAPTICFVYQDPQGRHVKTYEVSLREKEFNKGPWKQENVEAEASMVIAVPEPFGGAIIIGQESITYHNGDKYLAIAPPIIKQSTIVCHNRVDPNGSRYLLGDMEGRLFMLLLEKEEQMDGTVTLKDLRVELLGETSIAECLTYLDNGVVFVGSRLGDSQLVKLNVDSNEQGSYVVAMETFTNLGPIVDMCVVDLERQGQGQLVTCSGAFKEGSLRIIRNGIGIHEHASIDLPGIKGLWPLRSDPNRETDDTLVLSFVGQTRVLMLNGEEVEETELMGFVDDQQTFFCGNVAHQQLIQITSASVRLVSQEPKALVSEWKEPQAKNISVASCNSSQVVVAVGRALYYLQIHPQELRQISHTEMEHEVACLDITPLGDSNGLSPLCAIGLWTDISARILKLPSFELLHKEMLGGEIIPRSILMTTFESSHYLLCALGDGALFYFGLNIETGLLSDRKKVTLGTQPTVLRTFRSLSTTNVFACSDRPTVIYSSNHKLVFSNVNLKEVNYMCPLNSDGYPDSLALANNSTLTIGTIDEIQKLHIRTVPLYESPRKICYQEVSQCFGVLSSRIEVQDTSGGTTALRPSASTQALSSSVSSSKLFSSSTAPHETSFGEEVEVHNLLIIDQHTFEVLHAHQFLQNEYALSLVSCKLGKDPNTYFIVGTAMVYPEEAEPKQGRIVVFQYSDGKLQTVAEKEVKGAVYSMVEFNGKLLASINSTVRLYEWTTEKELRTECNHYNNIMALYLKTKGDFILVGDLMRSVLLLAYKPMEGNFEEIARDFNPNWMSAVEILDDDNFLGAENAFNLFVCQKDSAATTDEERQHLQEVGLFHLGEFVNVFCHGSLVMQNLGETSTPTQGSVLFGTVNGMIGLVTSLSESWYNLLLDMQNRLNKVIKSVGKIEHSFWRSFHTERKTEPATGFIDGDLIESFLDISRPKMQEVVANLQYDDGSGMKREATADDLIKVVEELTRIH

SMILES	GI50 (HL60 cells; [1])	DC50 (GSPT1)	GI50 (HL60 cells; 48 h incubation)
O=C1CCC(N2C(=O)c3cccc(NCc4cccc(C(=O)NC5CCC(c6nc7cccnc7[nH]6)CC5)c4)c3C2=O)C(=O)N1 (centres unmarked) [Example 18]	< 100 nM	< 100 nM	–
O=C1CCC(N2C(=O)c3cccc(NCc4ccnc(C(=O)NC5CCC(c6nc7ccccc7[nH]6)CC5)c4)c3C2=O)C(=O)N1 (centres unmarked) [Example 19]	< 100 nM	< 100 nM	–
Cn1c(C2CCC(NC(=O)c3cccc(CNc4cccc5c4C(=O)N(C4CCC(=O)NC4=O)C5=O)n3)CC2)nc2ccncc21 (centres unmarked) [Example 21]	< 100 nM	< 100 nM	–
O=C1CCC(N2C(=O)c3cccc(NCc4ccnc(C(=O)NC5CCC(c6nc7ccccc7o6)CC5)c4)c3C2=O)C(=O)N1 (centres unmarked) [Example 22]	< 100 nM	< 100 nM	–
Cn1c(C2CCC(NC(=O)c3cc(CNc4cccc5c4C(=O)N(C4CCC(=O)NC4=O)C5=O)ccn3)CC2)nc2ccncc21 (centres unmarked) [Example 23]	< 100 nM	< 100 nM	–
Cn1c(C2CCC(NC(=O)c3cc(CNc4cccc5c4C(=O)N(C4CCC(=O)NC4=O)C5=O)ccn3)CC2)nc2ccncc21 (centres unmarked) [Example 25]	–	< 100 nM	< 100 nM
O=C1CCC(N2C(=O)c3cccc(NCCCCC(=O)NC4CCC(c5nc6c(cnc7[nH]ccc76)[nH]5)CC4)c3C2=O)C(=O)N1 (centres unmarked) [Example 29]	< 100 nM	< 100 nM	–
Cn1c(C2CCC(NC(=O)c3cccc(CNc4cccc5c4C(=O)N(C4CCC(=O)NC4=O)C5=O)c3)CC2)nc2ccccc21 (centres unmarked) [Example 33]	< 100 nM	< 100 nM	–
Cn1c2cnccc2nc1[C@H]1CC[C@H](NC(=O)c2cccc(CNc3cccc4c3C(=O)N(C3CCC(=O)NC3=O)C4=O)c2)CC1 (some centres unmarked) [Example 34]	< 100 nM	< 100 nM	–
Cn1c(C2CCC(NC(=O)c3cc(CNc4cccc5c4C(=O)N(C4CCC(=O)NC4=O)C5=O)ccn3)CC2)nc2ccccc21 (centres unmarked) [Example 35]	< 100 nM	< 100 nM	–
Cn1c2ccncc2nc1[C@H]1CC[C@H](C(=O)Nc2cccc(CNc3cccc4c3C(=O)N(C3CCC(=O)NC3=O)C4=O)c2)CC1 (some centres unmarked) [Example 36]	< 100 nM	< 100 nM	–
Cn1c2cnccc2nc1[C@H]1CC[C@H](C(=O)Nc2cccc(CNc3cccc4c3C(=O)N(C3CCC(=O)NC3=O)C4=O)c2)CC1 (some centres unmarked) [Example 37]	< 100 nM	< 100 nM	–
O=C1CCC(N2C(=O)c3cccc(NCc4ccc5cn([C@H]6CC[C@H](c7nc8cccnc8s7)CC6)nc5c4)c3C2=O)C(=O)N1 (some centres unmarked) [Example 38]	< 100 nM	< 100 nM	–
Cn1c2cccnc2nc1[C@H]1CC[C@H](NC(=O)c2cc(CNc3cccc4c3C(=O)N(C3CCC(=O)NC3=O)C4=O)ccn2)CC1 (some centres unmarked) [Example 42]	< 100 nM	< 100 nM	–
Cn1c2ncccc2nc1[C@H]1CC[C@H](NC(=O)c2cc(CNc3cccc4c3C(=O)N(C3CCC(=O)NC3=O)C4=O)ccn2)CC1 (some centres unmarked) [Example 43]	< 100 nM	< 100 nM	–
O=C1CCC(N2C(=O)c3cccc(NCc4cccc(C(=O)NC5CCC(c6cc7ccccc7s6)CC5)c4)c3C2=O)C(=O)N1 (centres unmarked) [Example 44]	< 100 nM	< 100 nM	–
Cn1c(C2CCC(NC(=O)c3cc(COc4cccc5c4C(=O)N(C4CCC(=O)NC4=O)C5=O)ccn3)CC2)nc2ccncc21 (centres unmarked) [Example 48]	< 100 nM	< 100 nM	–
O=C1CCC(N2C(=O)c3cccc(NCc4cccc(C(=O)NC5CCC(c6nc7ccccc7s6)CC5)c4)c3C2=O)C(=O)N1 (centres unmarked) [Example 49]	< 100 nM	< 100 nM	–
O=C1CCC(N2C(=O)c3cccc(NCc4cccc(C(=O)NC5CCC(c6cc7ccncc7s6)CC5)c4)c3C2=O)C(=O)N1 (centres unmarked) [Example 50]	< 100 nM	< 100 nM	–

SMILES	GI50 (HL60 cells; [1])	DC50 (GSPT1)	GI50 (HL60 cells; 48 h incubation)
O=C1CCC(N2C(=O)c3cccc(NCc4cccc(C(=O)NC5CCC(c6cc7cnccc7s6)CC5)c4)c3C2=O)C(=O)N1 (centres unmarked) [Example 51]	< 100 nM	< 100 nM	–
O=C1CCC(N2C(=O)c3cccc(NCc4cccc(C(=O)NC5CCC(c6csc7ccncc67)CC5)c4)c3C2=O)C(=O)N1 (centres unmarked) [Example 56]	< 100 nM	< 100 nM	–
O=C1CCC(N2C(=O)c3cccc(NCc4cccc(C(=O)NC5CCC(c6nc7cccnc7s6)CC5)c4)c3C2=O)C(=O)N1 (centres unmarked) [Example 57]	< 100 nM	< 100 nM	–
O=C1CCC(N2C(=O)c3cccc(NCc4cccc(NC(=O)[C@H]5CC[C@H](c6nc7cccnc7s6)CC5)c4)c3C2=O)C(=O)N1 (some centres unmarked) [Example 59]	< 100 nM	< 100 nM	–
O=C1CCC(N2C(=O)c3cccc(NCc4cccc(C(=O)NC5CCC(c6csc7cncnc67)CC5)c4)c3C2=O)C(=O)N1 (centres unmarked) [Example 60]	< 100 nM	< 100 nM	–
O=C1CCC(N2C(=O)c3cccc(NCc4cccc(NC(=O)[C@H]5CC[C@H](c6nc7cccnc7s6)CC5)n4)c3C2=O)C(=O)N1 (some centres unmarked) [Example 62]	< 100 nM	< 100 nM	–
O=C1CCC(N2C(=O)c3cccc(NCc4cccc(C(=O)NC5CCC(c6cc7sccc7s6)CC5)c4)c3C2=O)C(=O)N1 (centres unmarked) [Example 66]	< 100 nM	< 100 nM	–
Cn1c(C2CC3(CC(NC(=O)c4cccc(CNc5cccc6c5C(=O)N(C5CCC(=O)NC5=O)C6=O)c4)C3)C2)nc2ccncc21 (centres unmarked) [Example 69]	< 100 nM	< 100 nM	–
CCn1c(C2CCC(NC(=O)c3cccc(CNc4cccc5c4C(=O)N(C4CCC(=O)NC4=O)C5=O)c3)CC2)nc2ccncc21 (centres unmarked) [Example 71]	< 100 nM	< 100 nM	–
Cn1c(C2CCC(NC(=O)c3cc(CNc4cccc5c4C(=O)N(C4CCC(=O)NC4=O)C5=O)ccc3F)CC2)nc2ccncc21 (centres unmarked) [Example 77]	< 100 nM	< 100 nM	–
CN(C(=O)c1cc(CNc2cccc3c2C(=O)N(C2CCC(=O)NC2=O)C3=O)ccn1)[C@H]1CC[C@H](c2nc3cccnc3s2)CC1 (some centres unmarked) [Example 79]	< 100 nM	< 100 nM	–
O=C1CCC(N2C(=O)c3cccc(NCc4ccc(F)c(C(=O)N[C@H]5CC[C@H](c6nc7cccnc7s6)CC5)c4)c3C2=O)C(=O)N1 (some centres unmarked) [Example 80]	< 100 nM	< 100 nM	–
O=C1CCC(N2C(=O)c3cccc(NCc4cccc(C(=O)NC5CCC(c6nc7cccnc7n6C6CC6)CC5)c4)c3C2=O)C(=O)N1 (centres unmarked) [Example 82]	< 100 nM	< 100 nM	–
CCCn1c(C2CCC(NC(=O)c3cccc(CNc4cccc5c4C(=O)N(C4CCC(=O)NC4=O)C5=O)c3)CC2)nc2cccnc21 (centres unmarked) [Example 84]	< 100 nM	< 100 nM	–
COc1ccc2c(c1)nc(C1CCC(NC(=O)c3cccc(CNc4cccc5c4C(=O)N(C4CCC(=O)NC4=O)C5=O)c3)CC1)n2C (centres unmarked) [Example 85]	< 100 nM	< 100 nM	–
CNc1ccc2c(c1)nc(C1CCC(NC(=O)c3cccc(CNc4cccc5c4C(=O)N(C4CCC(=O)NC4=O)C5=O)c3)CC1)n2C (centres unmarked) [Example 86]	< 100 nM	< 100 nM	–
COc1ccc(CNc2cccc3c2C(=O)N(C2CCC(=O)NC2=O)C3=O)cc1C(=O)N[C@H]1CC[C@H](c2nc3ncccc3s2)CC1 (some centres unmarked) [Example 95]	< 100 nM	< 100 nM	–
COc1cnc2sc([C@H]3CC[C@H](C(=O)Nc4cccc(CNc5cccc6c5C(=O)N(C5CCC(=O)NC5=O)C6=O)c4)CC3)nc2c1 (some centres unmarked) [Example 98]	< 100 nM	< 100 nM	–

Source: patent US20250361239A1, “PROTEIN DEGRADERS AND USES THEREOF” (ZHUHAI YUFAN BIOTECHNOLOGIES CO., LTD., priority 2022, published 2025)
